Source: PubChem BioAssay AID1919009 (Molecular Pharmacology Branch, DTP, NCI, 2023)
Where “and” joins values, the source holds several entries; their conditions need not be identical. Equal entries are not always repeated.

System: K24384-001-R-PDC complex spheroid growth
Experiment: Anticancer human tumor K24384-001-R-PDC patient-derived pancreatic adenocarcinoma cell line growth inhibition [AhR]
Conditions: for viability, T/C: stronger effect = lower value
How it was run: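 Spheroids combined tumor cells with HUVEC endothelial cells and human MSCs as stroma. AhR antagonists were paired with standard or investigational drugs, each dosed in half-log steps down from near clinical Cmax, or from 10 microM where Cmax was unknown.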

[1] = curve of first compound, second compound 0.1 µM
[2] = curve of first compound, second compound 0.316 µM
[3] = curve of first compound, second compound 1 µM
[4] = curve of first compound, second compound 3.16 µM
[5] = curve of first compound, second compound 10 µM
[6] = second compound 0.1 µM, first compound 0.0316 µM
[7] = second compound 0.1 µM, first compound 0.1 µM
[8] = second compound 0.1 µM, first compound 0.316 µM
[9] = second compound 0.1 µM, first compound 1 µM
[10] = second compound 0.316 µM, first compound 0.0316 µM
[11] = second compound 0.316 µM, first compound 0.1 µM
[12] = second compound 0.316 µM, first compound 0.316 µM
[13] = second compound 0.316 µM, first compound 1 µM
[14] = second compound 1 µM, first compound 0.0316 µM
[15] = second compound 1 µM, first compound 0.1 µM
[16] = second compound 1 µM, first compound 0.316 µM
[17] = second compound 1 µM, first compound 1 µM
[18] = second compound 3.16 µM, first compound 0.0316 µM
[19] = second compound 3.16 µM, first compound 0.1 µM
[20] = second compound 3.16 µM, first compound 0.316 µM
[21] = second compound 3.16 µM, first compound 1 µM
[22] = second compound 10 µM, first compound 0.0316 µM
[23] = second compound 10 µM, first compound 0.1 µM
[24] = second compound 10 µM, first compound 0.316 µM
[25] = second compound 10 µM, first compound 1 µM
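Wherever viability, T/C is given: percent of DMSO vehicle-treated spheroid viability set as 100%.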

CC1COCCN1c1cc(C2(S(C)(=N)=O)CC2)nc(-c2ccnc3[nH]ccc23)n1 (configuration not stated) + CC(CO)NC(=O)c1cc(-c2ccc(Cl)cc2)nn(-c2cnn(C)c2)c1=O was tested, and the IC50 [1] was greater than 10 µM, the IC50 [2] was 3.12 µM and the IC50 [3] was 9.45 µM. For the same compound, the IC50 [4] was 3.59 µM, the IC50 [5] was greater than 10 µM and the viability, T/C [6] was 113%. The viability, T/C [7] was 128%, the viability, T/C [8] was 133% and the viability, T/C [9] was 77.7%. For the same compound, the viability, T/C (second compound 0.1 µM, first compound 3.16 µM) was 55.8%, the viability, T/C (second compound 0.1 µM, first compound 10 µM) was 42.8% and the viability, T/C [10] was 136%. For the same compound, the viability, T/C [11] was 133%, the viability, T/C [12] was 136% and the viability, T/C [13] was 84.2%. It also gave a viability, T/C (second compound 0.316 µM, first compound 3.16 µM) of 52.7%, a viability, T/C (second compound 0.316 µM, first compound 10 µM) of 46.2% and a viability, T/C [14] of 142%. The viability, T/C [15] was 139%, the viability, T/C [16] was 136% and the viability, T/C [17] was 103%. For the same compound, the viability, T/C (second compound 1 µM, first compound 3.16 µM) was 66.5%, the viability, T/C (second compound 1 µM, first compound 10 µM) was 48.6% and the viability, T/C [18] was 125%. The viability, T/C [19] was 96.8%, the viability, T/C [20] was 132% and the viability, T/C [21] was 96.4%. For the same compound, the viability, T/C (second compound 3.16 µM, first compound 3.16 µM) was 53.1%, the viability, T/C (second compound 3.16 µM, first compound 10 µM) was 40.6% and the viability, T/C [22] was 122%. The viability, T/C [23] was 125%, the viability, T/C [24] was 130% and the viability, T/C [25] was 107%. The viability, T/C (second compound 10 µM, first compound 3.16 µM) was 64% and the viability, T/C (second compound 10 µM, first compound 10 µM) was 53.9%.

Work on O=C(C=Cn1cnc(-c2cc(C(F)(F)F)cc(C(F)(F)F)c2)n1)NNc1cnccn1 + Cc1cncc(-c2nc(NCCc3c[nH]c4ccccc34)c3ncn(C(C)C)c3n2)c1 yielded an IC50 [1] of 0.209 µM, an IC50 [2] of 0.242 µM and an IC50 [3] of 0.229 µM. For the same compound, the IC50 [4] was 0.196 µM, the IC50 [5] was less than 0.00949 µM and the viability, T/C (second compound 0.1 µM, first compound 0.00949 µM) was 93.8%. For the same compound, the viability, T/C (second compound 0.1 µM, first compound 0.03 µM) was 94.8%, the viability, T/C (second compound 0.1 µM, first compound 0.0949 µM) was 73.2% and the viability, T/C (second compound 0.1 µM, first compound 0.3 µM) was 39.3%. For the same compound, the viability, T/C (second compound 0.1 µM, first compound 0.949 µM) was 27.4%, the viability, T/C (second compound 0.1 µM, first compound 3 µM) was 23.6% and the viability, T/C (second compound 0.316 µM, first compound 0.00949 µM) was 90.8%. It also gave a viability, T/C (second compound 0.316 µM, first compound 0.03 µM) of 95.4%, a viability, T/C (second compound 0.316 µM, first compound 0.0949 µM) of 72.6% and a viability, T/C (second compound 0.316 µM, first compound 0.3 µM) of 45.3%. The viability, T/C (second compound 0.316 µM, first compound 0.949 µM) was 29.2%, the viability, T/C (second compound 0.316 µM, first compound 3 µM) was 24.8% and the viability, T/C (second compound 1 µM, first compound 0.00949 µM) was 116%. The viability, T/C (second compound 1 µM, first compound 0.03 µM) was 111%, the viability, T/C (second compound 1 µM, first compound 0.0949 µM) was 79.6% and the viability, T/C (second compound 1 µM, first compound 0.3 µM) was 40.6%. For the same compound, the viability, T/C (second compound 1 µM, first compound 0.949 µM) was 26.4%, the viability, T/C (second compound 1 µM, first compound 3 µM) was 19.9% and the viability, T/C (second compound 3.16 µM, first compound 0.00949 µM) was 94.9%. For the same compound, the viability, T/C (second compound 3.16 µM, first compound 0.03 µM) was 90.6%, the viability, T/C (second compound 3.16 µM, first compound 0.0949 µM) was 74.7% and the viability, T/C (second compound 3.16 µM, first compound 0.3 µM) was 35.1%. It also gave a viability, T/C (second compound 3.16 µM, first compound 0.949 µM) of 25.1%, a viability, T/C (second compound 3.16 µM, first compound 3 µM) of 20.4% and a viability, T/C (second compound 10 µM, first compound 0.00949 µM) of 9.12%. It also gave a viability, T/C (second compound 10 µM, first compound 0.03 µM) of 12.6%, a viability, T/C (second compound 10 µM, first compound 0.0949 µM) of 17.1% and a viability, T/C (second compound 10 µM, first compound 0.3 µM) of 16.6%. It also gave a viability, T/C (second compound 10 µM, first compound 0.949 µM) of 15.1% and a viability, T/C (second compound 10 µM, first compound 3 µM) of 12.8%.

With CC1COCCN1c1cc(C2(S(C)(=N)=O)CC2)nc(-c2ccnc3[nH]ccc23)n1 (configuration not stated) the viability, T/C (compound 0.0316 µM) was 107% and 105% and 126%, the viability, T/C (compound 0.1 µM) was 98.2% and 113% and 97.1% and the viability, T/C (compound 0.316 µM) was 105% and 102% and 95.6%. For the same compound, the viability, T/C (compound 1 µM) was 85% and 85.7% and 89.4%, the viability, T/C (compound 3.16 µM) was 71.8% and 56.9% and 59.7% and the viability, T/C (compound 10 µM) was 37.3% and 32.7% and 45.1%. For the same compound, the IC50 (curve of compound) was 6.47 µM and 4.31 µM and 7.58 µM.

In the case of CC1COCCN1c1cc(-c2ccnn2C)c2ccnc(-c3ccn[nH]3)c2n1 (configuration not stated) + CC(CO)NC(=O)c1cc(-c2ccc(Cl)cc2)nn(-c2cnn(C)c2)c1=O, the IC50 [1] is reported as 0.115 µM, the IC50 [2] is reported as 0.091 µM and the IC50 [3] is reported as 0.0947 µM. For the same compound, the IC50 [4] was 0.0546 µM, the IC50 [5] was 0.0525 µM and the viability, T/C (second compound 0.1 µM, first compound 0.00316 µM) was 105%. For the same compound, the viability, T/C (second compound 0.1 µM, first compound 0.01 µM) was 93.7%, the viability, T/C [6] was 80.8% and the viability, T/C [7] was 51.7%. For the same compound, the viability, T/C [8] was 33%, the viability, T/C [9] was 26.4% and the viability, T/C (second compound 0.316 µM, first compound 0.00316 µM) was 111%. It also gave a viability, T/C (second compound 0.316 µM, first compound 0.01 µM) of 118%, a viability, T/C [10] of 75.5% and a viability, T/C [11] of 50.9%. It also gave a viability, T/C [12] of 32.3%, a viability, T/C [13] of 24.3% and a viability, T/C (second compound 1 µM, first compound 0.00316 µM) of 94%. For the same compound, the viability, T/C (second compound 1 µM, first compound 0.01 µM) was 121%, the viability, T/C [14] was 86.4% and the viability, T/C [15] was 49%. The viability, T/C [16] was 28%, the viability, T/C [17] was 21.3% and the viability, T/C (second compound 3.16 µM, first compound 0.00316 µM) was 73.1%. For the same compound, the viability, T/C (second compound 3.16 µM, first compound 0.01 µM) was 74.8%, the viability, T/C [18] was 64.2% and the viability, T/C [19] was 34.2%. For the same compound, the viability, T/C [20] was 23.7%, the viability, T/C [21] was 25.2% and the viability, T/C (second compound 10 µM, first compound 0.00316 µM) was 85.8%. For the same compound, the viability, T/C (second compound 10 µM, first compound 0.01 µM) was 79.2%, the viability, T/C [22] was 60.1% and the viability, T/C [23] was 37.7%. It also gave a viability, T/C [24] of 27.2% and a viability, T/C [25] of 28.4%.
